In ChEMBL document CHEMBL3763037 (J Med Chem, 2016):

Columns and labels:
[1] = biological target: Poly [ADP-ribose] polymerase 1 (Homo sapiens, UniProt P09874); assay: Inhibition of human PARP1 using [3H]NAD as substrate after 1 min by microplate scintillation counting analysis
PARP 1, 2 and 3 = PARP 1, 2 and 3 (Homo sapiens, UniProt P09874+Q9Y6F1+Q9UGN5); assay: Inhibition of PARP in human LoVo cells assessed as inhibition of poly(ADP)-ribose polymerization for 30 mins by fluorescence assay; format: cell-based
[2] = Cytotoxicity against BRCA2-deficient human Capan1 cells; format: functional, cell-based, CAPAN-1
[3] = Half life in rat liver microsomes; format: ADME
LoVo = assay: cells; conditions: Homo sapiens, 120 h
MRC5 = assay: Cytotoxicity against human MRC5 cells; format: cell-based
[4] = Oral bioavailability in Sprague-Dawley rat at 10 mg/kg by LC-MS/MS analysis; format: ADME, organism-based; conditions: Sprague-Dawley, in vivo
[5] = AUC in Sprague-Dawley rat at 10 mg/kg, po by LC-MS/MS analysis; format: ADME, organism-based; conditions: Sprague-Dawley, in vivo
[6] = Cmax in Sprague-Dawley rat at 10 mg/kg, po by LC-MS/MS analysis; format: ADME, organism-based; set-up: dose 10 mg/kg, route oral; conditions: in vivo
[7] = Volume of distribution at steady state in Sprague-Dawley rat at 5 mg/kg, iv by LC-MS/MS analysis; format: ADME, organism-based; conditions: in vivo, read-out: Vdss
[8] = Clearance in Sprague-Dawley rat at 5 mg/kg, iv by LC-MS/MS analysis; format: ADME, organism-based; conditions: in vivo
[9] = Terminal eliminational half life in Sprague-Dawley rat at 5 mg/kg, iv by LC-MS/MS analysis; format: ADME, organism-based; conditions: Sprague-Dawley, in vivo, read-out: beta t1/2 (converted)

Chain of Poly [ADP-ribose] polymerase 1 (P09874 whole entry): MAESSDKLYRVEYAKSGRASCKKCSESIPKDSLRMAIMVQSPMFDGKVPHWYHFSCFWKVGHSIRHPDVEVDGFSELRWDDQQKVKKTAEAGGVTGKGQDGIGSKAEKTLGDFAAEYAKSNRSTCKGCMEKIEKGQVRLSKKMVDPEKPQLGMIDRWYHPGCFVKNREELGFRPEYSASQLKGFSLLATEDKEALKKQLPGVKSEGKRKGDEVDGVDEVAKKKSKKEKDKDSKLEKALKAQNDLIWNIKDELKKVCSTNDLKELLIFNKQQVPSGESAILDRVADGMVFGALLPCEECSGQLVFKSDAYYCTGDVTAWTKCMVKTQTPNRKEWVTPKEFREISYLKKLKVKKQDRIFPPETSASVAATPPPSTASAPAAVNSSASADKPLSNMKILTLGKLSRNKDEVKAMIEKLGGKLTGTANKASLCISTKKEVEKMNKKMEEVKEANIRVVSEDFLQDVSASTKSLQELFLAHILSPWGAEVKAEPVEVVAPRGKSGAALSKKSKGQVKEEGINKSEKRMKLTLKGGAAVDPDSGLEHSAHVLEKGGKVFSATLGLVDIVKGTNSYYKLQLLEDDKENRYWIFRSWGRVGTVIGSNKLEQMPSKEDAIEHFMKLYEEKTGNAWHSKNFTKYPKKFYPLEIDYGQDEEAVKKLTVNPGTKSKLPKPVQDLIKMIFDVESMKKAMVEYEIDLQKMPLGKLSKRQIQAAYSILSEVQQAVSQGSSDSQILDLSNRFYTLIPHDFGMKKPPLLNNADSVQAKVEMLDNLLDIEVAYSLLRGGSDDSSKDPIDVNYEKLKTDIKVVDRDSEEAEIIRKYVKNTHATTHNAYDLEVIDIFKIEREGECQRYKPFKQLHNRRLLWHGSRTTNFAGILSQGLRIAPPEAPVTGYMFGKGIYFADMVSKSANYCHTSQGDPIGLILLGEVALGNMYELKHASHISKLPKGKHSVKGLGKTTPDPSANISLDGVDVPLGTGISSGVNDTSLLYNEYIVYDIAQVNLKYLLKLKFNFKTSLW

IC50 [1] [nM] | EC50 (PARP 1, 2 and 3) [nM] | half-life [3] [min] | GI50 (LoVo) [µM] | Compound | EC50 ([2]; Homo sapiens, CAPAN-1) [nM] | other results
3.29 | 8.48 | 5 | 46 | CN(C)Cc1ccc(C2Nc3cc(F)cc4c(=O)[nH]nc(c34)C2c2ccccc2)cc1 (centres undefined) | 146 | 
2.63 | 6.1 | 82 | 94 | CN(C)Cc1ccc(C2Nc3cc(F)cc4c(=O)[nH]nc(c34)C2c2ccc(F)cc2)cc1 (centres undefined) | 134 | 
68.9 | 250 |  | 3.26 | Cn1ncnc1[C@@H]1c2n[nH]c(=O)c3cccc(c23)N[C@H]1c1ccc(F)cc1 | 1880 | 
2.14 | 18.1 | 103 | 36.3 | Cn1ccnc1C1c2n[nH]c(=O)c3cc(F)cc(c23)NC1c1ccccc1 (centres undefined) | 108 | 
2.4 | 149 | 414 | > 400 | Cn1ncnc1C1c2n[nH]c(=O)c3cccc(c23)NC1c1ccccc1 (centres undefined) | 170 | 
2.48 | 18.5 | 44 | 76 | CN(C)Cc1ccc(C2Nc3cccc4c(=O)[nH]nc(c34)C2c2ccc(F)cc2)cc1 (centres undefined) | 1730 | 
 |  |  |  | NC(=O)c1cccc2cn(-c3ccc([C@@H]4CCCNC4)cc3)nc12 [NIRAPARIB] | 650 | 
3.09 | 3.81 | 89 | 95 | O=c1[nH]nc2c3c(cccc13)NC(c1ccc(CN3CCC3)cc1)C2c1ccc(F)cc1 (centres undefined) | 276 | 
5.85 |  | 6 | 112 | CN(C)Cc1ccc(C2c3n[nH]c(=O)c4cccc(c34)NC2c2ccccc2)cc1 (centres undefined) |  | 
2.36 | 6 | 12 | 59 | CN(C)Cc1ccc(C2Nc3cccc4c(=O)[nH]nc(c34)C2c2ccccc2)cc1 (centres undefined) | 387 | 
4140 |  |  |  | CC(C)C1c2n[nH]c(=O)c3cccc(c23)NC1c1ccccc1 (centres undefined) |  | 
2.63 |  |  | 128 | CN(C)Cc1cccc(C2Nc3cccc4c(=O)[nH]nc(c34)C2c2ccccc2)c1 (centres undefined) |  | 
22.4 |  |  | > 400 | O=c1[nH]nc2c3c(cccc13)NC(c1ccncc1)C2c1ccncc1 (centres undefined) |  | 
2.08 | 19.7 | > 120 | 75.5 | Cn1ccnc1C1c2n[nH]c(=O)c3cccc(c23)NC1c1ccc(F)cc1 (centres undefined) | 418 | 
108 |  |  |  | O=c1[nH]nc2c3c(cccc13)NC(c1ccccn1)C2c1ccccn1 (centres undefined) |  | 
2.02 | 40.6 | 19 | 54.6 | CN1CCN(Cc2ccc(C3Nc4cccc5c(=O)[nH]nc(c45)C3c3ccccc3)cc2)CC1 (centres undefined) | 603 | 
5.27 | 27.2 |  | 192 | Cn1ccnc1C1c2n[nH]c(=O)c3cccc(c23)NC1c1ccc(C(F)(F)F)cc1 (centres undefined) | 1100 | 
1.84 | 9.33 |  | > 400 | Cn1nccc1C1c2n[nH]c(=O)c3cc(F)cc(c23)NC1c1ccc(F)cc1 (centres undefined) | 956 | 
1.46 | 5.1 |  | 0.041 | Cn1ncnc1[C@H]1c2n[nH]c(=O)c3cccc(c23)N[C@@H]1c1ccc(F)cc1 | 37 | bioavailability [4]: 47%; AUC [5]: 39900 ng·h/mL; Cmax [6]: 7770 ng/mL; Vd [7]: 0.39 L/kg; clearance [8]: 2 mL/min/kg; half-life [9]: 146 min
3.65 |  | 11 | 204 | CN(C)Cc1cccc(C2c3n[nH]c(=O)c4cccc(c34)NC2c2ccccc2)c1 (centres undefined) |  | 
 |  |  | 1.81 | Cn1ncnc1[C@@H]1c2n[nH]c(=O)c3cc(F)cc(c23)N[C@H]1c1ccc(F)cc1 | 1140 | 
4.02 | 9.47 | 8 | 90 | O=c1[nH]nc2c3c(cccc13)NC(c1ccc(CN3CCCC3)cc1)C2c1ccccc1 (centres undefined) | 298 | 
 |  |  | 0.144 | CNCc1ccc(-c2[nH]c3cc(F)cc4c3c2CCNC4=O)cc1 [RUCAPARIB] |  | EC50 (MRC5; Homo sapiens, MRC5): 8.53 µM
2.88 |  |  |  | Cn1nccc1C1Nc2cc(F)cc3c(=O)[nH]nc(c23)C1c1ncnn1C (centres undefined) | 1920 | 
7.35 | 24.4 |  | 106 | O=c1[nH]nc2c3c(cccc13)NC(c1ccc(F)cc1)C2c1nccs1 (centres undefined) |  | 
2.29 | 6.94 | > 120 | 44 | Cn1ncnc1C1c2n[nH]c(=O)c3cccc(c23)NC1c1ccc(F)cc1 (centres undefined) | 71 | 

IC50 [1] [nM] | EC50 (PARP 1, 2 and 3) [nM] | half-life [3] [min] | GI50 (LoVo) [µM] | Compound | EC50 ([2]; Homo sapiens, CAPAN-1) [nM] | other results
 |  | 359 | 19 | Cn1ncnc1C1c2n[nH]c(=O)c3cc(F)cc(c23)NC1c1ccc(F)cc1 (centres undefined) | 8 | 
1.95 | 10.8 | 35 | 123 | Cc1ccc(C2c3n[nH]c(=O)c4cccc(c34)NC2c2ccc(CN(C)C)cc2)cc1 (centres undefined) | 514 | 
3.89 | 18.6 | > 120 | 63 | CN(C)Cc1ccc(C2Nc3cccc4c(=O)[nH]nc(c34)C2c2ccc(CN(C)C)cc2)cc1 (centres undefined) | 979 | 
6.18 | 121 |  | 111 | Cn1ccnc1C1c2n[nH]c(=O)c3cc(Cl)cc(c23)NC1c1ccccc1 (centres undefined) | 785 | 
6.1 | 58.4 |  | 324 | O=c1[nH]nc2c3c(cccc13)NC(c1ccccc1)C2c1ccccc1 (centres undefined) | 2970 | 
9.59 | 15.2 |  | 123 | CC(C)c1ccc(C2c3n[nH]c(=O)c4cccc(c34)NC2c2ccc(CN(C)C)cc2)cc1 (centres undefined) |  | 
6.29 | 6.7 |  | 94 | CN(C)Cc1ccc(C2Nc3cccc4c(=O)[nH]nc(c34)C2c2ccc(C(F)(F)F)cc2)cc1 (centres undefined) | 818 | 
5.6 | 11.8 |  | 3.57 | O=c1[nH]nc2c3c(cccc13)N[C@@H](c1ccc(CN3CCC3)cc1)[C@@H]2c1ccc(F)cc1 | 2250 | 
22.4 | 164 |  | 0.104 | Cn1ccnc1[C@@H]1c2n[nH]c(=O)c3cc(F)cc(c23)N[C@H]1c1ccc(F)cc1 | 124 | 
2.6 |  | 472 | 24 | Cn1ncnc1C1c2n[nH]c(=O)c3cc(F)cc(c23)NC1c1ccccc1 (centres undefined) | 9 | 
105 |  |  |  | O=c1[nH]nc2c3c(cccc13)NC(c1cccnc1)C2C1CCCNC1 (centres undefined) |  | 
3.63 | 9.7 | 8 | 89 | O=c1[nH]nc2c3c(cccc13)NC(c1ccc(CN3CCC3)cc1)C2c1ccccc1 (centres undefined) | 434 | 
2.76 |  |  | > 400 | Cn1cnnc1C1c2n[nH]c(=O)c3cccc(c23)NC1c1ccccc1 (centres undefined) | 4340 | 
1.1 | 6.3 |  | 0.279 | O=c1[nH]nc2c3c(cccc13)N[C@H](c1ccc(CN3CCC3)cc1)[C@H]2c1ccc(F)cc1 | 389 | bioavailability [4]: 14%; AUC [5]: 914 ng·h/mL; Cmax [6]: 126 ng/mL; Vd [7]: 4.5 L/kg; clearance [8]: 26 mL/min/kg; half-life [9]: 137 min
7.62 |  |  |  | Cn1ncnc1C1c2n[nH]c(=O)c3cc(F)cc(c23)NC1c1cncnc1 (centres undefined) |  | 
136 | 285 |  | > 10 | Cn1ccnc1[C@@H]1c2n[nH]c(=O)c3cccc(c23)N[C@H]1c1ccc(F)cc1 | 6310 | 
1.87 | 17 |  | 35.7 | Cn1ccnc1C1c2n[nH]c(=O)c3cc(F)cc(c23)NC1c1ccc(F)cc1 (centres undefined) | 56 | 
9.45 |  |  | > 400 | Cn1ccnc1C1Nc2cccc3c(=O)[nH]nc(c23)C1c1ccccc1 (centres undefined) |  | 
2.02 | 23 | 89 | 134 | O=c1[nH]nc2c3c(cccc13)NC(c1ccc(CN3CCCC3)cc1)C2c1ccc(F)cc1 (centres undefined) | 454 | 
2.08 |  | > 120 |  | CC(=O)Nc1ccc(C2Nc3cc(F)cc4c(=O)[nH]nc(c34)C2c2ncnn2C)cc1 (centres undefined) | 146 | 
24.5 |  |  |  | Cn1ccnc1C1Nc2cccc3c(=O)[nH]nc(c23)C1c1nccn1C (centres undefined) |  | 
17.7 |  |  |  | O=c1[nH]nc2c3c(cccc13)NC(c1cccnc1)C2c1cccnc1 (centres undefined) |  | 
2.35 | 16.9 | 89 | 97 | Cn1ccnc1C1c2n[nH]c(=O)c3cccc(c23)NC1c1ccccc1 (centres undefined) | 360 | 
2.25 | 6.9 |  | 0.261 | Cn1ccnc1[C@H]1c2n[nH]c(=O)c3cccc(c23)N[C@@H]1c1ccc(F)cc1 | 305 | bioavailability [4]: 91%; AUC [5]: 36500 ng·h/mL; Cmax [6]: 10500 ng/mL; Vd [7]: 0.5 L/kg; clearance [8]: 4 mL/min/kg; half-life [9]: 138 min
3.9 |  |  |  | Cn1ncnc1C1c2n[nH]c(=O)c3cc(F)cc(c23)NC1c1ccc(C#N)cc1 (centres undefined) | 88 | 

Compound | IC50 [1] [nM] | EC50 (PARP 1, 2 and 3) [nM] | half-life [3] [min] | GI50 (LoVo) [µM] | EC50 ([2]; Homo sapiens, CAPAN-1) [nM] | other results
C[C@]1(c2nc3c(C(N)=O)cccc3[nH]2)CCCN1 [VELIPARIB] |  |  |  | 6.2 |  | EC50 ([2]; capan-1): > 10000 nM; EC50 (MRC5; mrc5): > 10 µM
